According to the kinase profiling compilation of Christmann-Franck et al. (2016):
pKd: −log10 of the molar value.

Assays:
Test in all cases: KINOMEscan competition binding
MAPK14 (human) = MAPK14 (human) (UniProt Q16539)
PTK6 (human) = PTK6 (human) (UniProt Q13882)
RIPK2 (human) = RIPK2 (human) (UniProt O43353)
MAPK9 (human) = MAPK9 (human) (UniProt P45984)
DAPK2 (human) = DAPK2 (human) (UniProt Q9UIK4)
[1] = molecular target: JAK1 JH1 catalytic (human) (UniProt P23458)
CAMK2B (human) = CAMK2B (human) (UniProt Q13554)
EPHA7 (human) = EPHA7 (human) (UniProt Q15375)
Sequence of EPHA7 (human) (Q15375 whole entry, looked up): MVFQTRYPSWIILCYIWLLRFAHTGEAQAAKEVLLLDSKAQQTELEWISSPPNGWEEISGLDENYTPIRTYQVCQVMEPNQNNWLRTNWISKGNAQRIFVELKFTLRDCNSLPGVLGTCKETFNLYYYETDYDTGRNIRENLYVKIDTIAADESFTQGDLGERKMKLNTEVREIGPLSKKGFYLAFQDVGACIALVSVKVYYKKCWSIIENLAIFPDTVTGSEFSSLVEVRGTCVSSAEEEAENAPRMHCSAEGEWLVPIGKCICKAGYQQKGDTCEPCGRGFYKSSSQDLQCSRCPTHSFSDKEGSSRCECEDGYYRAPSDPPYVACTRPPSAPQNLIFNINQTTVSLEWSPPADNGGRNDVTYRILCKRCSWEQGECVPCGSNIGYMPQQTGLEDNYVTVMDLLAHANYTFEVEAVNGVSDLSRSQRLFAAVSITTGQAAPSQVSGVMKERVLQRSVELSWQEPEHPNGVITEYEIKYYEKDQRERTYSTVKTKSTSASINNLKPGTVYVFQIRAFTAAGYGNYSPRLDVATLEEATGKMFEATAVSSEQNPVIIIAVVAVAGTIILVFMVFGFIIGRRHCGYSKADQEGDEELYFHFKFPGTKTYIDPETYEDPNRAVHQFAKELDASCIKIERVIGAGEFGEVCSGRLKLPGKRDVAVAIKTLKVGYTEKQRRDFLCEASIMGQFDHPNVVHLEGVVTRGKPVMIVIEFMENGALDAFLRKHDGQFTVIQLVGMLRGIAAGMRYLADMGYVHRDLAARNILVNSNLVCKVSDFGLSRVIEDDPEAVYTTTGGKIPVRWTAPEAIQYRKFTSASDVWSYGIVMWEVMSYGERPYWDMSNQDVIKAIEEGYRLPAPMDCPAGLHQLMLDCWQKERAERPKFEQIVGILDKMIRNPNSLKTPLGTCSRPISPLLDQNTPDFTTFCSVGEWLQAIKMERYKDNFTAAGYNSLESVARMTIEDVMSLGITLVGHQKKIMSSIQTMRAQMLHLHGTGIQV

NTRK1 (human) = NTRK1 (human) (UniProt P04629)
PAK4 (human) = PAK4 (human) (UniProt O96013)
PDGFRB (human) = PDGFRB (human) (UniProt P09619)
MKNK2 (human) = MKNK2 (human) (UniProt Q9HBH9)
Sequence of MKNK2 (human) (Q9HBH9 whole entry, looked up): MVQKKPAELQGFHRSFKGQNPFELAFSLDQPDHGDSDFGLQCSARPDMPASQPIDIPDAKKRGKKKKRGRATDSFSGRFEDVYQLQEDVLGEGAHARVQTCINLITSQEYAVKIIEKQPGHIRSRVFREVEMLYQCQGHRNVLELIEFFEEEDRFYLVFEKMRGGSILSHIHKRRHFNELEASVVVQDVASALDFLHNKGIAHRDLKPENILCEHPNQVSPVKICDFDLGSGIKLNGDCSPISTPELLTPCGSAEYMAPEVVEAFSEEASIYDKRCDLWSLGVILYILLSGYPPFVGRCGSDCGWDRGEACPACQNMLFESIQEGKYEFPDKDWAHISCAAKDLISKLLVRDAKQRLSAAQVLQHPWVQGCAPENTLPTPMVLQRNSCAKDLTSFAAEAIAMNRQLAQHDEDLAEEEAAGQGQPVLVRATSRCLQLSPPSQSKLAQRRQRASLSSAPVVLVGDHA

NEK6 (human) = NEK6 (human) (UniProt Q9HC98)
CAMKK1 (human) = CAMKK1 (human) (UniProt Q8N5S9)
AURKA (human) = AURKA (human) (UniProt O14965)
RPS6KA5 KD1 (human) = RPS6KA5 KD1 (human) (UniProt O75582)
MAPK8 (human) = MAPK8 (human) (UniProt P45983)
CSNK1G1 (human) = CSNK1G1 (human) (UniProt Q9HCP0)
CDK5 (human) = CDK5 (human) (UniProt Q00535)
Sequence of CDK5 (human) (Q00535 whole entry, looked up): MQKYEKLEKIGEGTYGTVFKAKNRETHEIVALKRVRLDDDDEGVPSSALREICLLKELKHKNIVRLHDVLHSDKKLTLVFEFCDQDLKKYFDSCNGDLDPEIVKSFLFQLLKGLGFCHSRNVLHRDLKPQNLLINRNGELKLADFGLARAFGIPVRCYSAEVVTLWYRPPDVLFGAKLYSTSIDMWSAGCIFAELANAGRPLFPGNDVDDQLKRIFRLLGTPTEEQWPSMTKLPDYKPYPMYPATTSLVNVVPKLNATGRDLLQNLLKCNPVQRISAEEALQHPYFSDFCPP

RPS6KA3 KD1 (human) = RPS6KA3 KD1 (human) (UniProt P51812)
CDK2 (human) = CDK2 (human) (UniProt P24941)
LIMK1 (human) = LIMK1 (human) (UniProt P53667)
KDR (human) = KDR (human) (UniProt P35968)
PRKACA (human) = PRKACA (human) (UniProt P17612)
CAMK2D (human) = CAMK2D (human) (UniProt Q13557)
FGFR1 (human) = FGFR1 (human) (UniProt P11362)
CAMK2G (human) = CAMK2G (human) (UniProt Q13555)
PLK4 (human) = PLK4 (human) (UniProt O00444)
Sequence of PLK4 (human) (O00444 whole entry, looked up): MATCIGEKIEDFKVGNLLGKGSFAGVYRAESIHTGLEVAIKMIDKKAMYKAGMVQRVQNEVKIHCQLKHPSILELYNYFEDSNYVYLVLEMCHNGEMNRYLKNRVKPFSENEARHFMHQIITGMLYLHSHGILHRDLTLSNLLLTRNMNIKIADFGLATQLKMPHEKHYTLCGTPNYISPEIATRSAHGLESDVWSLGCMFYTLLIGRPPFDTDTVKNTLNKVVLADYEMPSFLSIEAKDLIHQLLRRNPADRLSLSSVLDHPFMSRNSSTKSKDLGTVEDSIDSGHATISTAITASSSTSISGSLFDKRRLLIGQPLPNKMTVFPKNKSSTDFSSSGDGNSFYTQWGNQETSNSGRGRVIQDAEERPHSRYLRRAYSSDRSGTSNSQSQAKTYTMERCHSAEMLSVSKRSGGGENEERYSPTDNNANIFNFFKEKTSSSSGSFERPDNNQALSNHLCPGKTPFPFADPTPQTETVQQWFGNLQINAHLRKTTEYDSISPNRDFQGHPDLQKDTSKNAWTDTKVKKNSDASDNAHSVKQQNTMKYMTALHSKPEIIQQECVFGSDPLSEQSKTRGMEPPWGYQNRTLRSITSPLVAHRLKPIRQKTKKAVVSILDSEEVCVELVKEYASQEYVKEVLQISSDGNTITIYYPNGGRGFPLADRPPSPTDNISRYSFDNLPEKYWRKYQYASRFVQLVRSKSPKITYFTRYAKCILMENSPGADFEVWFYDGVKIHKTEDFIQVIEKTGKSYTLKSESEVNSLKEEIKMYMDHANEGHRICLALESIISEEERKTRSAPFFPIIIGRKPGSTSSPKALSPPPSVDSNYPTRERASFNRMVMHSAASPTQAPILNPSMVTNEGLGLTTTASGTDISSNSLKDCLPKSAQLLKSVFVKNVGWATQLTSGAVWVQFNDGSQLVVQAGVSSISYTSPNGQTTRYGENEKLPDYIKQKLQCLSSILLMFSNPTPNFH

MAPK11 (human) = MAPK11 (human) (UniProt Q15759)
TTK (human) = TTK (human) (UniProt P33981)
Sequence of TTK (human) (P33981 whole entry, looked up): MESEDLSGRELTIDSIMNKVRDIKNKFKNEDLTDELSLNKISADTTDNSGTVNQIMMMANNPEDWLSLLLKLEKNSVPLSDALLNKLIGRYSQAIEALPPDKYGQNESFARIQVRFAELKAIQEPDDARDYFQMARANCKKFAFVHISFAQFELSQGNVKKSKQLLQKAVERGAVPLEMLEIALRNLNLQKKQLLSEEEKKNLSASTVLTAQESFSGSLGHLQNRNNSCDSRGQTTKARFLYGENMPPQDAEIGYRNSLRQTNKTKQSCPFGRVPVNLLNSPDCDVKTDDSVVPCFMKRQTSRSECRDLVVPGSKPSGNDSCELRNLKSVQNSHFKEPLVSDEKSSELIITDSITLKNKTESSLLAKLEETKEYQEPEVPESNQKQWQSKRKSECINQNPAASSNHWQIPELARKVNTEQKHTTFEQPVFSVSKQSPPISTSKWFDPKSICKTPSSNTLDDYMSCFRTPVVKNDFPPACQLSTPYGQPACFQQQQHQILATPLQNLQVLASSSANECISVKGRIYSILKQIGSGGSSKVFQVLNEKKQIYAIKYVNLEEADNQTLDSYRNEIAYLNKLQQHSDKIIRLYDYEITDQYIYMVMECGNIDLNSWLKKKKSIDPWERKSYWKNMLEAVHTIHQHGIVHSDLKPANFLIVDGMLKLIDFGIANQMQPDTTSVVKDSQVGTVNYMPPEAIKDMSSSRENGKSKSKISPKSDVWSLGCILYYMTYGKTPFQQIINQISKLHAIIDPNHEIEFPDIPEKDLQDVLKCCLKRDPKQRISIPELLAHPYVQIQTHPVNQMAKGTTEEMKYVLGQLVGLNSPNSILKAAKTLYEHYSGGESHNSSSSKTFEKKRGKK

PAK7 (human) = PAK7 (human) (UniProt Q9P286)
MAPK12 (human) = MAPK12 (human) (UniProt P53778)
FGFR3 (human) = FGFR3 (human) (UniProt P22607)
PIM2 (human) = PIM2 (human) (UniProt Q9P1W9)
EPHA2 (human) = EPHA2 (human) (UniProt P29317)
FLT4 (human) = FLT4 (human) (UniProt P35916)
KIT (human) = KIT (human) (UniProt P10721)
PAK6 (human) = PAK6 (human) (UniProt Q9NQU5)
EPHA4 (human) = EPHA4 (human) (UniProt P54764)
CAMK2A (human) = CAMK2A (human) (UniProt Q9UQM7)
FGFR2 (human) = FGFR2 (human) (UniProt P21802)
NEK9 (human) = NEK9 (human) (UniProt Q8TD19)
Sequence of NEK9 (human) (Q8TD19 whole entry, looked up): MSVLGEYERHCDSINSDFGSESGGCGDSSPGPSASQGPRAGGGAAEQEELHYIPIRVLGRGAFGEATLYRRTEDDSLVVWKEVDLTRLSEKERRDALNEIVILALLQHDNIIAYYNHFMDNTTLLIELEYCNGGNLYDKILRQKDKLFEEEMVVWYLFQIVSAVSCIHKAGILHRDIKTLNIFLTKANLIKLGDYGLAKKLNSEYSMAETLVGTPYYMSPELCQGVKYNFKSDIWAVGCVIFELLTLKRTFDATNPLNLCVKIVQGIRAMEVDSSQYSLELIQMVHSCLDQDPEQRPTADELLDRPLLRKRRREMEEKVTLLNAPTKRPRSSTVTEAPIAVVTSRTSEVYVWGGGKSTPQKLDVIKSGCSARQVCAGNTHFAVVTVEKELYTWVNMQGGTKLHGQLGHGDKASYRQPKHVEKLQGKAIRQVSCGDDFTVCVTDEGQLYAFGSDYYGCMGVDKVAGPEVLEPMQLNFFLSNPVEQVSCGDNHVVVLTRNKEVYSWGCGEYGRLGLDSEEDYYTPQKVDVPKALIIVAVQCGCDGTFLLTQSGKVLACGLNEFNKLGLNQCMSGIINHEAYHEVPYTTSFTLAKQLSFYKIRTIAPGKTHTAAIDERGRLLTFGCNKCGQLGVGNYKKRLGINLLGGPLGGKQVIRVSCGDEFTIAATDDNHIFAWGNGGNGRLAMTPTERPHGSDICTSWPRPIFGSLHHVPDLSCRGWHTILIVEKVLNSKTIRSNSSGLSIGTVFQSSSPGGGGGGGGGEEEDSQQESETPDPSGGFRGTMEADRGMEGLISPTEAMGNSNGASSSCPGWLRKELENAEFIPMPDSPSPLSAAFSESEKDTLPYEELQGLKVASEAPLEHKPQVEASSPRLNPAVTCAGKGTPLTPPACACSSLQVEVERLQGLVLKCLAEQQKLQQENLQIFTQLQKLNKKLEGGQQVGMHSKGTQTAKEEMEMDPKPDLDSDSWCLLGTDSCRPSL

FGR (human) = FGR (human) (UniProt P09769)
PIM1 (human) = PIM1 (human) (UniProt P11309)
MAP3K5 (human) = MAP3K5 (human) (UniProt Q99683)
FLT3 (human) = FLT3 (human) (UniProt P36888)
PRKAA1 (human) = PRKAA1 (human) (UniProt Q13131)
MAPK10 (human) = MAPK10 (human) (UniProt P53779)
CAMK1 (human) = CAMK1 (human) (UniProt Q14012)
Sequence of CAMK1 (human) (Q14012 whole entry, looked up): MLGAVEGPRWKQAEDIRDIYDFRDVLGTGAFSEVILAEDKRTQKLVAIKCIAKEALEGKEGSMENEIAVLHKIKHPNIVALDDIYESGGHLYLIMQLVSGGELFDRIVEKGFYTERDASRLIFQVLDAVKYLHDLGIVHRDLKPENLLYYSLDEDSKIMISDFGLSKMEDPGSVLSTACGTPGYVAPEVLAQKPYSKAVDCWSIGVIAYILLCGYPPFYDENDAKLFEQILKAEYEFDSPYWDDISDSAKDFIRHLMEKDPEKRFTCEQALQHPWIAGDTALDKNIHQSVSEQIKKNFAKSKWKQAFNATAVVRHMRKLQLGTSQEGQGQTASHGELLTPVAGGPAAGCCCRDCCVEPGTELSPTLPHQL

AURKC (human) = AURKC (human) (UniProt Q9UQB9)
INSR (human) = INSR (human) (UniProt P06213)
STK16 (human) = STK16 (human) (UniProt O75716)

Measured: pKd

CCOc1cc2ncc(C#N)c(Nc3ccc(F)c(Cl)c3)c2cc1NC(=O)/C=C/CN(C)C
< 5.00: MAPK14 (human) | PTK6 (human) | RIPK2 (human) | MAPK9 (human) | DAPK2 (human) | [1] | CAMK2B (human) | EPHA7 (human) | NTRK1 (human) | PAK4 (human) | PDGFRB (human) | MKNK2 (human) | NEK6 (human) | CAMKK1 (human) | AURKA (human) | RPS6KA5 KD1 (human) | MAPK8 (human) | CSNK1G1 (human) | CDK5 (human) | RPS6KA3 KD1 (human) | CDK2 (human) | LIMK1 (human) | KDR (human) | PRKACA (human) | CAMK2D (human) | FGFR1 (human) | CAMK2G (human) | PLK4 (human) | MAPK11 (human) | TTK (human) | PAK7 (human) | MAPK12 (human) | FGFR3 (human) | PIM2 (human) | EPHA2 (human) | FLT4 (human) | KIT (human) | PAK6 (human) | EPHA4 (human) | CAMK2A (human) | FGFR2 (human) | NEK9 (human) | FGR (human) | PIM1 (human) | MAP3K5 (human) | FLT3 (human) | PRKAA1 (human) | MAPK10 (human) | CAMK1 (human) | AURKC (human) | INSR (human) | STK16 (human)

CS(=O)c1ccc(-c2nc(-c3ccc(F)cc3)c(-c3ccncc3)[nH]2)cc1 (stereo not drawn)
< 5.00: TTK (human)
